From PubChem BioAssay (NCI)
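A five-concentration, 48-hour dose response in 96-well plates underlies each endpoint, interpolated linearly between surrounding concentrations. GI50 marks 50% less growth. The concentration for full growth arrest is given as TGI.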

Tests used:
Assay in all cases: inhibition of tumour cell growth, NCI panel, 48 h; in the data active = GI50 below about 0.43 µM; inactive = the rest
[1] = test system: BT-549 breast
[2] = test system: HL-60(TB) leukemia
[3] = test system: SW-620 colon
[4] = test system: CAKI-1 renal
[5] = test system: ACHN renal
[6] = test system: T-47D breast
[7] = test system: SR leukemia
[8] = test system: SK-MEL-2 melanoma
[9] = test system: UO-31 renal
[10] = test system: COLO 205 colon
[11] = test system: NCI-H522 lung
[12] = test system: LOX IMVI melanoma
[13] = test system: CCRF-CEM leukemia
[14] = test system: HCT-15 colon
[15] = test system: NCI/ADR-RES ovarian
[16] = test system: NCI-H226 lung
[17] = test system: MDA-MB-435
[18] = test system: RXF 393 renal
[19] = test system: HOP-92 NSCLC
[20] = test system: SK-MEL-5 melanoma
[21] = test system: NCI-H460 lung
[22] = test system: UACC-257 melanoma
[23] = test system: A498 renal
[24] = test system: OVCAR-5 ovarian
[25] = test system: PC-3 prostate
[26] = test system: SNB-75 CNS
[27] = test system: OVCAR-8 ovarian
[28] = test system: OVCAR-4 ovarian
[29] = test system: KM12 colon

Cc1c(NC(=O)c2cc(C(N)=O)nc3cc(F)ccc23)c(C(F)(F)F)nn1Cc1ccc(C#N)cc1
25.3 µM: TGI [1]
> 37.9 µM: TGI [29]
18.1 µM: TGI [19]
> 100 µM: TGI [2] | TGI [3] | TGI [7] | TGI [9] | TGI [12] | TGI [13] | TGI [14] | TGI [15] | TGI [16] | TGI [17] | TGI [20] | TGI [21] | TGI [22] | TGI [27]
inactive: GI50 [1] 1.78 µM | GI50 [2] 29.8 µM | GI50 [3] 23.8 µM | GI50 [4] 5.66 µM | GI50 [5] 12.4 µM | GI50 [7] 48.8 µM | GI50 [8] 19.2 µM | GI50 [9] 1.78 µM | GI50 [10] 0.504 µM | GI50 [11] 18.3 µM | GI50 [12] 8.13 µM | GI50 [14] 23 µM | GI50 [15] 12.3 µM | GI50 [16] 13.4 µM | GI50 [17] 56.9 µM | GI50 [18] 5.56 µM | GI50 [19] 1.28 µM | GI50 [20] 16.3 µM | GI50 [21] 4.76 µM | GI50 [22] > 95.3 µM | GI50 [23] 15.1 µM | GI50 [24] 8.61 µM | GI50 [25] 0.451 µM | GI50 [26] 5.8 µM | GI50 [27] 7.02 µM | GI50 [28] 4.91 µM | GI50 [29] 0.512 µM
31.3 µM: TGI [6]
> 83.7 µM: TGI [8]
24.4 µM: TGI [25]
> 64.4 µM: TGI [11]
62.4 µM: TGI [23]
3.23 µM: TGI [10]
28.8 µM: TGI [18]
97.5 µM: TGI [24]
45.2 µM: TGI [26]
active: GI50 [6] 0.295 µM | GI50 [13] 0.167 µM
35.1 µM: TGI [4]
> 76.9 µM: TGI [28]
71.1 µM: TGI [5]
